Source: patent US12636297B2, “Boronic acid derivatives and therapeutic uses thereof” (priority 2019, dated 2026)
Like-named read-outs stand apart in the source and are kept apart here.

What was measured:
[1] = test system: Pseudomonas aeruginosa (PA); experiment: Broth microdilution MIC of β-lactams alone and with Compound 1 against Pseudomonas aeruginosa clinical isolates (representative and challenge panels); format: cell-based; conditions: for MIC Distribution, % of isolates: Compound 1 at 8 μg/mL; for MIC Distribution, % of isolates / Minimum Inhibitory Concentration Distribution, % of isolates: AVI and TAZ at 4 μg/mL; for Minimum Inhibitory Concentration Distribution, % of isolates: representative panel of PA (N = 500), without Compound 1; for % susceptible, [S] / MIC50 / MIC90: Compound 1, AVI, and TAZ at fixed 4 μg/mL; for % susceptible, [S]: breakpoints MER ≤8, TOL ≤4, CAZ ≤8 μg/mL; for MIC50 / MIC90: Pseudomonas aeruginosa
Protocol: (§1) In this example the in vitro activity of Compound 1 was evaluated in combination with several β-lactams including sulbactam, meropenem, and ceftolozane against clinical isolates of carbapenem-resistant (CR) Acinetobacter baumannii (AB) and Pseudomonas aeruginosa (PA).

[2] = test system: carbapenem-resistant (CR) Acinetobacter baumannii (AB); experiment: Broth microdilution MIC of β-lactams alone and with Compound 1 against carbapenem-resistant Acinetobacter baumannii clinical isolates; format: cell-based; conditions: Compound 1 at fixed 4 μg/mL; for % susceptible, [S]: breakpoints MER ≤8 μg/mL, TOL ≤4 μg/mL
Protocol: as §1

[3] = test system: carbapenem resistant Enterobacteriaceae (CRE); experiment: MIC of antibiotics with Compound 1 against panel of 510 CRE clinical isolates; format: cell-based; conditions: antibiotic alone
Protocol: In this example, the antibiotics meropenem, cefepime, ceftolozane and cefiderocol, were tested in combination with Compound 1 at 4 μg/ml and 8 μg/ml against a panel of 510 clinical isolates representing various types of carbapenem resistant Enterobacteriaceae (CRE). Cefiderocol was tested at standard conditions, in […] media.

[4] = test system: carbapenem resistant Acinetobacter baumannii; experiment: MIC of antibiotics with Compound 1 against panel of 503 carbapenem resistant Acinetobacter baumannii clinical isolates; format: cell-based; conditions: carbapenem resistant Acinetobacter baumannii (N = 503); antibiotic alone
Protocol: In another experiment, various antibiotics, meropenem, cefepime, ceftolozane and cefiderocol, were tested in combination with Compound 1 at 4 μg/ml and 8 μg/ml against the panel of 503 clinical isolates of carbapenem resistant Acinetobacter baumannii. […] Cefiderocol was tested at standard conditions, in […] media.

P. aeruginosa = experiment: Susceptibility testing of 262 P. aeruginosa strains with meropenem MIC >2 μg/mL; format: cell-based, Pseudomonas aeruginosa; conditions: Compound 1 at 8 μg/mL, breakpoints ≤8 μg/mL meropenem and cefepime, ≤4 μg/mL ceftolozane, ≤16 μg/mL piperacillin
Protocol: In addition, 509 Carbapenem-Resistant Enterobacteriaceae were tested with meropenem, cefepime, and ceftolozane alone and in combination with Compound 1 at 8 μg/mL. Furthermore, 262 strains of P. aeruginosa with a meropenem MIC>2 μg/mL were tested with meropenem, ceftolozane, cefepime and piperacillin alone and in combination with Compound 1 at 8 μg/mL.
262 strains of P. aeruginosa having a meropenem MIC greater than 2 μg/mL were tested with meropenem, ceftolozane, cefepime and piperacillin alone and Compound 1 at 8 μg/mL.

[5] = non-carbapenemase producing CRE, N = 45

## C[C@@H](O)[C@H]1C(=O)N2C(C(=O)O)=C(S[C@@H]3CN[C@H](C(=O)N(C)C)C3)[C@H](C)[C@H]12 [MER, meropenem]
[1]; MIC 0.125 μg/mL, PA CAZ-AVI R (CAZ-AVI >8 μg/mL)
  MIC Distribution, % of isolates: .3%
[1]; MIC 0.125 μg/mL, PA MER NS (MER >2 μg/mL), N = 612
  MIC Distribution, % of isolates: 0.0%
[1]; MIC 0.125 μg/mL, PA TOL-TAZ NS (TOL-TAZ >4 μg/mL)
  MIC Distribution, % of isolates: 1.3%
[1]; MIC 0.125 μg/mL
  Minimum Inhibitory Concentration Distribution, % of isolates: 14.2%
[1]; MIC 0.25 μg/mL, PA CAZ-AVI R (CAZ-AVI >8 μg/mL)
  MIC Distribution, % of isolates: .6%
[1]; MIC 0.25 μg/mL, PA MER NS (MER >2 μg/mL), N = 612
  MIC Distribution, % of isolates: .0%
[1]; MIC 0.25 μg/mL, PA TOL-TAZ NS (TOL-TAZ >4 μg/mL)
  MIC Distribution, % of isolates: 2.7%
[1]; MIC 0.25 μg/mL
  Minimum Inhibitory Concentration Distribution, % of isolates: 33.0%
[1]; MIC 0.5 μg/mL, PA CAZ-AVI R (CAZ-AVI >8 μg/mL)
  MIC Distribution, % of isolates: .2%
[1]; MIC 0.5 μg/mL, PA MER NS (MER >2 μg/mL), N = 612
  MIC Distribution, % of isolates: .0%
[1]; MIC 0.5 μg/mL, PA TOL-TAZ NS (TOL-TAZ >4 μg/mL)
  MIC Distribution, % of isolates: 3.7%
[1]; MIC 0.5 μg/mL
  Minimum Inhibitory Concentration Distribution, % of isolates: 51.0%
[1]; MIC 1 μg/mL, PA CAZ-AVI R (CAZ-AVI >8 μg/mL)
  MIC Distribution, % of isolates: .5%
[1]; MIC 1 μg/mL, PA MER NS (MER >2 μg/mL), N = 612
  MIC Distribution, % of isolates: .0%
[1]; MIC 1 μg/mL, PA TOL-TAZ NS (TOL-TAZ >4 μg/mL)
  MIC Distribution, % of isolates: 6.0%
[1]; MIC 1 μg/mL
  Minimum Inhibitory Concentration Distribution, % of isolates: 66.2%
[1]; MIC 2 μg/mL, PA CAZ-AVI R (CAZ-AVI >8 μg/mL)
  MIC Distribution, % of isolates: .8%
[1]; MIC 2 μg/mL, PA MER NS (MER >2 μg/mL), N = 612
  MIC Distribution, % of isolates: .0%
[1]; MIC 2 μg/mL, PA TOL-TAZ NS (TOL-TAZ >4 μg/mL)
  MIC Distribution, % of isolates: 8.7%
[1]; MIC 2 μg/mL
  Minimum Inhibitory Concentration Distribution, % of isolates: 73.2%
[1]; MIC 4 μg/mL, PA CAZ-AVI R (CAZ-AVI >8 μg/mL)
  MIC Distribution, % of isolates: 1.0%
[1]; MIC 4 μg/mL, PA MER NS (MER >2 μg/mL), N = 612
  MIC Distribution, % of isolates: .5%
[1]; MIC 4 μg/mL, PA TOL-TAZ NS (TOL-TAZ >4 μg/mL)
  MIC Distribution, % of isolates: 13.7%
[1]; MIC 4 μg/mL
  Minimum Inhibitory Concentration Distribution, % of isolates: 79.8%
[1]; MIC 8 μg/mL, PA CAZ-AVI R (CAZ-AVI >8 μg/mL)
  MIC Distribution, % of isolates: 8.2%
[1]; MIC 8 μg/mL, PA MER NS (MER >2 μg/mL), N = 612
  MIC Distribution, % of isolates: 7.5%
[1]; MIC 8 μg/mL, PA TOL-TAZ NS (TOL-TAZ >4 μg/mL)
  MIC Distribution, % of isolates: 22.1%
[1]; MIC 8 μg/mL
  Minimum Inhibitory Concentration Distribution, % of isolates: 84.8%
[1]; MIC 16 μg/mL, PA CAZ-AVI R (CAZ-AVI >8 μg/mL)
  MIC Distribution, % of isolates: 8.9%
[1]; MIC 16 μg/mL, PA MER NS (MER >2 μg/mL), N = 612
  MIC Distribution, % of isolates: 6.7%
[1]; MIC 16 μg/mL, PA TOL-TAZ NS (TOL-TAZ >4 μg/mL)
  MIC Distribution, % of isolates: 32.8%
[1]; MIC 16 μg/mL
  Minimum Inhibitory Concentration Distribution, % of isolates: 90.4%
[1]; MIC 32 μg/mL, PA CAZ-AVI R (CAZ-AVI >8 μg/mL)
  MIC Distribution, % of isolates: 3.2%
[1]; MIC 32 μg/mL, PA MER NS (MER >2 μg/mL), N = 612
  MIC Distribution, % of isolates: 0.4%
[1]; MIC 32 μg/mL, PA TOL-TAZ NS (TOL-TAZ >4 μg/mL)
  MIC Distribution, % of isolates: 58.2%
[1]; MIC 32 μg/mL
  Minimum Inhibitory Concentration Distribution, % of isolates: 95.4%
[1]; MIC >32 μg/mL, PA CAZ-AVI R (CAZ-AVI >8 μg/mL)
  MIC Distribution, % of isolates: 100.0%
[1]; MIC >32 μg/mL, PA MER NS (MER >2 μg/mL), N = 612
  MIC Distribution, % of isolates: 100.0%
[1]; MIC >32 μg/mL, PA TOL-TAZ NS (TOL-TAZ >4 μg/mL)
  MIC Distribution, % of isolates: 100.0%
[1]; MIC >32 μg/mL
  Minimum Inhibitory Concentration Distribution, % of isolates: 100.0%
[1]; MIC ≤0.06 μg/mL
  Minimum Inhibitory Concentration Distribution, % of isolates: 4.8%
[1]; MIC ≥0.06 μg/mL, PA CAZ-AVI R (CAZ-AVI >8 μg/mL)
  MIC Distribution, % of isolates: .3%
[1]; MIC ≥0.06 μg/mL, PA MER NS (MER >2 μg/mL), N = 612
  MIC Distribution, % of isolates: 0.0%
[1]; MIC ≥0.06 μg/mL, PA TOL-TAZ NS (TOL-TAZ >4 μg/mL)
  MIC Distribution, % of isolates: 0.3%
[1]; PA (CAZ-AVI MIC >8) (37)
  % susceptible, [S]: (18.9) %
  MIC50: 32 µg/mL
  MIC90: > 32 µg/mL
[1]; PA (Challenge, 652)
  % susceptible, [S]: (31.9) %
  MIC50: 16 µg/mL
  MIC90: > 32 µg/mL
[1]; PA (MER MIC >2) (612)
  % susceptible, [S]: (27.5) %
  MIC50: 32 µg/mL
  MIC90: > 32 µg/mL
[1]; PA (Representative, 500)
  % susceptible, [S]: (84.8) %
  MIC50: 0.5 µg/mL
  MIC90: 16 µg/mL
[1]; PA (TOL-TAZ MIC >4) (39)
  % susceptible, [S]: (21.1) %
  MIC50: 32 µg/mL
  MIC90: > 32 µg/mL
[2]; AB CP (100), defined carbapenemases
  % susceptible, [S]: (0.0) %
[2]; Acinetobacter baumannii, AB CP (100), defined carbapenemases, read-out: MIC50
  MIC50: > 32 µg/mL
[2]; Acinetobacter baumannii, AB CP (100), defined carbapenemases, read-out: MIC90
  MIC90: > 32 µg/mL
[2]; CRAB (300)
  MIC50: >32/>32 μg/mL
  MIC90: >32/>32 μg/mL
  % susceptible, [S]: (1.0) %
[3]; CRE KPC, N = 168
  MIC50: 32 µg/mL
  MIC90: > 32 µg/mL
[3]; CRE MBL, N = 145
  MIC50: > 32 µg/mL
  MIC90: > 32 µg/mL
[3]; CRE OXA, N = 152
  MIC50: 32 µg/mL
  MIC90: > 32 µg/mL
[3]; [5]
  MIC50: 8 µg/mL
  MIC90: 16 µg/mL
[4]
  MIC50: > 32 µg/mL
  MIC90: > 32 µg/mL
P. aeruginosa; All strains (N = 262), meropenem MIC >2 μg/mL
  % of susceptible organisms at breakpoints: 42%
P. aeruginosa; MBL (N = 56)
  % of susceptible organisms at breakpoints: 7%
P. aeruginosa; No MBL (N = 206)
  % of susceptible organisms at breakpoints: 51%
